Data set [1] has as its system human AML cell line MV4-11. Description: Cytotoxicity assay in human leukemia cell lines (Cell-Titer Glo).
The target of data set [2] is T1, recombinant human DPP9 (rhDPP9) (Homo sapiens (Human), UniProt Q86TI2). Description: Inhibition of DPP9 activity, 10 ng rhDPP9, H-Gly-Pro-AMC. Particulars: Table 3B. In kind it is biochemical.
In data set [3] the target is recombinant human DPPIV (rhDPPIV) (Homo sapiens (Human), UniProt P27487). The data set can be described thus: DPPIV enzymatic activity assay. The class given is biochemical. To be noted: Table 3B.
Data set [4] has as its target recombinant human FAPα (rhFAPα) (Homo sapiens (Human), UniProt Q12884). Description: FAPα enzymatic exopeptidase (dipeptidase) activity assay, Z-Gly-Pro-AMC. The class given is biochemical. Particulars: for inhibition at 1 µM / rhFAPα (% exo inh @ 1 μM): 1 μM test compound, exopeptidase; for inhibition at 1 µM: read-out: rhFAPα (% exo inh @ 1 μM).
For data set [5], the target named is recombinant mouse FAPα (rmFAPα) (Mus musculus (Mouse), UniProt P97321). Described as above. In kind it is biochemical. Particulars: 1 μM test compound.
For data set [6], the target named is recombinant mouse DPPIV (rmDPPIV) (Mus musculus (Mouse), UniProt P28843). Description: DPPIV enzymatic activity assay. Particulars: Table 3A. In kind it is biochemical.
In data set [7] the target is recombinant mouse PREP (rmPREP) (Mus musculus (Mouse), UniProt Q9QUR6). Description: PREP enzymatic activity assay. In kind it is biochemical. Particulars: Table 3A.
The target in data set [8] is recombinant human PREP (rhPREP) (Homo sapiens (Human), UniProt P48147). Description: PREP enzymatic activity assay. In kind it is biochemical. Particulars: Table 3B.
For data set [9] the following is noted: upon standing in pH 7.8; cyclization; cited from earlier work.
In data set [10] the target is T1, recombinant human DPP9 (rhDPP9). Description: DPP9 enzymatic activity assay. In kind it is biochemical. Particulars: Table 3A.
The target of data set [11] is circulating FAPα from hamster plasma (Mesocricetus auratus, UniProt A0ABM2XF29). Description: Ex vivo inhibition of circulating FAPα activity in hamster plasma (PRXS-AMC). Particulars: PRXS-AMC substrate. In kind it is biochemical, Golden Syrian hamster. How it is done:
Male Golden Syrian hamsters were provided by National Laboratory Animal Center (NLAC) in Taiwan. The animals were maintained in a hygienic environment under controlled temperature (20-24° C.) and humidity (50%-80%) with 12 hours light/dark cycles. Free access to standard lab diet [MFG (Oriental Yeast Co., Ltd. Japan)] and autoclaved tap water were granted. All aspects of this work including housing, experimentation and disposal of animals were performed in general accordance with the “Guide for the Care and Use of Laboratory Animals: Eighth Edition” (National Academies Press, Washington, D.C., 2011). In addition, the animal care and use protocol was reviewed and approved by the IACUC at Pharmacology Discovery Services Taiwan, Ltd. Immediately after the sacrifice of hamsters, blood samples were collected via terminal cardiac puncture in tubes coated with EDTA-K2, mixed gently, then kept on ice and centrifuged at 2,500×g for 15 minutes at 4° C. After plasma separation, samples were stored at −80° C. in aliquots of […]. To assay exemplary compounds in hamster plasma, a similar protocol as described for human plasma was performed diluting thawed plasma 1:2 in assay buffer. […] AMC release was detected measuring fluorescence at an excitation/emission wavelength of 380/460 nm using a Multifunction Microplate Reader. […]

Where [12] appears, read: Homo sapiens, MV4-11, 48 h, read-out: MV4-11 viability IC50, μM.

Read-outs that look alike come from different tables or passages of the source.

Sequence of recombinant human PREP (rhPREP) (P48147 whole entry): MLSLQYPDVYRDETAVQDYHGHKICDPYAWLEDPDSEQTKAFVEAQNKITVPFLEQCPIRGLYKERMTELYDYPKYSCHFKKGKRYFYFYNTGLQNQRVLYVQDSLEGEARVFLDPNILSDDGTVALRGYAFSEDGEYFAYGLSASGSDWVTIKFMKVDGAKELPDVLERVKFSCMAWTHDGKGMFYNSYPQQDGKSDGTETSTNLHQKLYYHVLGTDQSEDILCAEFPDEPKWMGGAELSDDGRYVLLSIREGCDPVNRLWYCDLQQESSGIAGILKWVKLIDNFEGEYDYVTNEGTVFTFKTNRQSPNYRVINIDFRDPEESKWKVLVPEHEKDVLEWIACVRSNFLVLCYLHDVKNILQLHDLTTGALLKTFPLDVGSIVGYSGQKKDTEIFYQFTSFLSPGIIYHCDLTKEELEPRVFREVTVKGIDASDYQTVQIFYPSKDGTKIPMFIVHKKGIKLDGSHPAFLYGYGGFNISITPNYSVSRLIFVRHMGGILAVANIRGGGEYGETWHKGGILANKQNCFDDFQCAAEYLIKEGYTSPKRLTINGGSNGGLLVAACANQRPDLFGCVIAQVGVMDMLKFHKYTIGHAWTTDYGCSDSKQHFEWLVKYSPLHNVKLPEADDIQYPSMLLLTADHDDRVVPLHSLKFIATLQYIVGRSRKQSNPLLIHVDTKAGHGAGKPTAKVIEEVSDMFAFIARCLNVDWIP
Sequence of recombinant human DPPIV (rhDPPIV) (P27487 whole entry): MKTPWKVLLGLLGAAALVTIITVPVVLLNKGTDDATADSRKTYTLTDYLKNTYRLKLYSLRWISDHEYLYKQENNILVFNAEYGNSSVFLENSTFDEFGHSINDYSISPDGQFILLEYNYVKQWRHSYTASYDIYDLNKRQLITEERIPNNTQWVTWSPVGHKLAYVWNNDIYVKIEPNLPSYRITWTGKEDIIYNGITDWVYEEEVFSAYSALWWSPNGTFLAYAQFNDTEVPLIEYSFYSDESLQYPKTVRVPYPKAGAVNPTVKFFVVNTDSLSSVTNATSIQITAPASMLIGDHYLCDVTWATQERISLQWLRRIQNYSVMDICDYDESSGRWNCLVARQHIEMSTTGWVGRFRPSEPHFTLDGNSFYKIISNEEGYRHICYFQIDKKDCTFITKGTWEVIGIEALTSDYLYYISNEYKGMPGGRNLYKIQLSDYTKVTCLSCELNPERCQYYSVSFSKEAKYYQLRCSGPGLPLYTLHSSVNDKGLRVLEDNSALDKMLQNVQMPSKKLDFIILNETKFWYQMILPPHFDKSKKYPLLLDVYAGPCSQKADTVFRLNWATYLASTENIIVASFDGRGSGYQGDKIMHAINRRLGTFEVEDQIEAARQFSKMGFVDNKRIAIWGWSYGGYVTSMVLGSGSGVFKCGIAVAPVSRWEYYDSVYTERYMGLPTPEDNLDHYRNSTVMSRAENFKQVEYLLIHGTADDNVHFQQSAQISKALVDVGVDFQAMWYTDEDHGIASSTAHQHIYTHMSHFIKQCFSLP
T1 sequence (Q86TI2 whole entry): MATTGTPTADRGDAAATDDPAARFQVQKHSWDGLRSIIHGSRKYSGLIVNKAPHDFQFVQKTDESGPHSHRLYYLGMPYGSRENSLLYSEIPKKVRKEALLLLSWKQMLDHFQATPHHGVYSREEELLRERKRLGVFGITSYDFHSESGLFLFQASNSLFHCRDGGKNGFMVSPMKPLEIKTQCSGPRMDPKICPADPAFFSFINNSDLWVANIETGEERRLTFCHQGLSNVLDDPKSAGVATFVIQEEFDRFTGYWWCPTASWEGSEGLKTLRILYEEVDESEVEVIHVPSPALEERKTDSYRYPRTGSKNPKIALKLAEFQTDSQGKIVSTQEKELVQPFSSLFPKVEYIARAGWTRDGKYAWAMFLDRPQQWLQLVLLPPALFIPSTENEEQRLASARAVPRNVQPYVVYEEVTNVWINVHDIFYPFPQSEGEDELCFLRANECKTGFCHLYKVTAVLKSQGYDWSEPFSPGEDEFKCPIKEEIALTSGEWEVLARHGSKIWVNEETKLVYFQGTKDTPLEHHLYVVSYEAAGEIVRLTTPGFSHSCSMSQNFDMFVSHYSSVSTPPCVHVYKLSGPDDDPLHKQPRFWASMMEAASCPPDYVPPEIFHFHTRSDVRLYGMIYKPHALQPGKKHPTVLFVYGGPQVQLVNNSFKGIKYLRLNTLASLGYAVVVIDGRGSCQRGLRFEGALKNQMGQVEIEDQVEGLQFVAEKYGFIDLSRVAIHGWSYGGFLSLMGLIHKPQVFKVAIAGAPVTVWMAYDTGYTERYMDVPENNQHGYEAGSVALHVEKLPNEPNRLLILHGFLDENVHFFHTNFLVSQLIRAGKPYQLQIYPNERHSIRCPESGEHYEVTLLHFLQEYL
Sequence of recombinant human FAPα (rhFAPα) (Q12884 whole entry): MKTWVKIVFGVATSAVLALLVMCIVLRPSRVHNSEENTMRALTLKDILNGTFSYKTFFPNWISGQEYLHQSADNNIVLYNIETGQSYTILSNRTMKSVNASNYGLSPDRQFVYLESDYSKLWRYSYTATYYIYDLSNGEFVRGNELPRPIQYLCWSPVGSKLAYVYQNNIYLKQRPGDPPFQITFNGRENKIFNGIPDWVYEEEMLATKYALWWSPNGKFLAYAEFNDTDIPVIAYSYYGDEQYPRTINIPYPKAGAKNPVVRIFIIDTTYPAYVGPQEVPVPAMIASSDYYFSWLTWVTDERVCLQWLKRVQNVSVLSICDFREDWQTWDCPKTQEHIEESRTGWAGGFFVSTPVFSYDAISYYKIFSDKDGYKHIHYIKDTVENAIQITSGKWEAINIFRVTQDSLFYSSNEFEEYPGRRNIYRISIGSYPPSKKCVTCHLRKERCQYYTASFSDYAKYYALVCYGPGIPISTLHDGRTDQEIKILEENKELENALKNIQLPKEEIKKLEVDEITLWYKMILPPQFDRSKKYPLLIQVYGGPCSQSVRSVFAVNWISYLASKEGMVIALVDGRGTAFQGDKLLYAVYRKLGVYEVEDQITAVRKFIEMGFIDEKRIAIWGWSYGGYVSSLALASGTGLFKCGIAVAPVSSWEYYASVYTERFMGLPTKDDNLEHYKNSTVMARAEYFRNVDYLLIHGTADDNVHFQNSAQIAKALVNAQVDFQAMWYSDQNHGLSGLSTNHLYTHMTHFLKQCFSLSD
Sequence of recombinant mouse DPPIV (rmDPPIV) (P28843 whole entry): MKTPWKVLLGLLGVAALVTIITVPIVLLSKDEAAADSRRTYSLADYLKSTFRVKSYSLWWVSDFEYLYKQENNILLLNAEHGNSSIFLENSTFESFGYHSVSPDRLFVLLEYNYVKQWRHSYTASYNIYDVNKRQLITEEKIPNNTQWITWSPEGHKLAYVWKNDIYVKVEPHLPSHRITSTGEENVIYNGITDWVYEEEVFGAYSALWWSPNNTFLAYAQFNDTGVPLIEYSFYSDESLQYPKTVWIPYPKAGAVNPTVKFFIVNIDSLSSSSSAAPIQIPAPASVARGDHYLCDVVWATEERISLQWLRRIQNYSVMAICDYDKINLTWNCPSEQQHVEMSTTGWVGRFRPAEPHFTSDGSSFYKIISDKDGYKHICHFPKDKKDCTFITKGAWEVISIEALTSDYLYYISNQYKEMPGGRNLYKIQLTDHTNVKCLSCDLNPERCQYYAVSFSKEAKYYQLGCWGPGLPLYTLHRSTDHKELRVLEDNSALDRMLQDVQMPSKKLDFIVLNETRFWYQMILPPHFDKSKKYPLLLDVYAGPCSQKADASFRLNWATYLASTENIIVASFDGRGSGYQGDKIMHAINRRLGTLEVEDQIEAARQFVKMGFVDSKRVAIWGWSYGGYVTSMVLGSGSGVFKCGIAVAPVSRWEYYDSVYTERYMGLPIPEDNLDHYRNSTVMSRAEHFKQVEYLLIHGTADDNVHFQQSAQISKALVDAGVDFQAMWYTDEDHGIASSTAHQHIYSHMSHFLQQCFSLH
Sequence of recombinant mouse FAPα (rmFAPα) (P97321 whole entry): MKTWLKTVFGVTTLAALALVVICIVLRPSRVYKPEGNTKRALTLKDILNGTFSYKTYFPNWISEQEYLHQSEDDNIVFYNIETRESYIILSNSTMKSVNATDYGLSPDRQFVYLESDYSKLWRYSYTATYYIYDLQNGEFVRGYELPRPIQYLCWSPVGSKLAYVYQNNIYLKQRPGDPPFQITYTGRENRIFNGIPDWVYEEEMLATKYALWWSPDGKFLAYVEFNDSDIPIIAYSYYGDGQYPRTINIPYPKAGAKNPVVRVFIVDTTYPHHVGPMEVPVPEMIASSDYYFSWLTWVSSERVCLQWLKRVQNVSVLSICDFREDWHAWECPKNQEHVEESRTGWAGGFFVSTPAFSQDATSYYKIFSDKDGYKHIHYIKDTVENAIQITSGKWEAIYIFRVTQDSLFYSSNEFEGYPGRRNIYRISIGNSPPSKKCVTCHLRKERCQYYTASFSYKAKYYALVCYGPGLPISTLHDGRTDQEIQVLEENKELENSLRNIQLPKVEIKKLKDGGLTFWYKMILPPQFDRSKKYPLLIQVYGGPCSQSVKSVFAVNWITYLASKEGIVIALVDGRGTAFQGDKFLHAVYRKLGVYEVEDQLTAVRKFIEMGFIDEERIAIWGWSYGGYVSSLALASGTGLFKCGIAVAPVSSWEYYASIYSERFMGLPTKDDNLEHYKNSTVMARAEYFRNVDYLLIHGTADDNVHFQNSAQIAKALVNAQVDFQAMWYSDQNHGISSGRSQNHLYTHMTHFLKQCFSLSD

In general, IC50 refers to the point on the concentration scale where inhibition reaches its midpoint. Regarding `N#C[C@@H]1CC(F)(F)CN1C(=O)CNC(=O)c1ccnc2ccc(-c3ccc4c(c3)CCC(=O)N4)cc12` [Compound 16, (S)—N-(2-(2-cyano-4,4-difluoropyrrolidin-1-yl)-2-oxoethyl)-2′-oxo-1′,2′,3′,4′-tetrahydro-[6,6′-biquinoline]-4-carboxamide], the figures for the IC50 in data set [1] (setting [12]), in [2] and in data set [3] were over 10 µM, under 1 µM and 1 to 10 µM, respectively.
Regarding `N#C[C@@H]1CC(F)(F)CN1C(=O)CNC(=O)c1ccnc2ccc(/C=C/c3ccc4c(c3)CCNC4=O)cc12` [Compound 38], the IC50 in data set [1] (setting [12]) was over 10 µM; in data set [2], under 1 µM; in data set [4], under 1 µM. Also, the inhibition at 1 µM in [4] (Table 3B) is over 50%.
Take `CN1C(=O)CCc2cc(-c3ccc4nccc(C(=O)NCC(=O)N5CC(F)(F)C[C@H]5C#N)c4c3)ccc21` [Compound 110]: the figures for the IC50 in data set [1] (setting [12]), in [2] and in data set [3] were under 3 µM, under 1 µM and over 10 µM, respectively.
In the case of `N#C[C@@H]1CC(F)(F)CN1C(=O)CNC(=O)c1ccnc2ccccc12` [Ref. Comp.], the “rmFAPα (% exo inh @ 1 μM)” value in [5] is given as “+++ (+++ refers to > 50% inhibition at 1 μM test compound)”. Besides, the IC50 in data set [6] and in data set [7] was over 10 µM each time. In addition, the “rhFAPα (% exo inh @ 1 μM)” value in data set [4] and in data set [4] (Table 3B) was “+++ (+++ refers to > 50% inhibition at 1 μM test compound)” throughout.
For `C[C@@H](NC(=O)c1ccncc1-c1ccccc1)C(=O)N1CC(F)(F)C[C@H]1C#N` [Compound 126], the IC50 in data set [2], in [3], in [4] and in data set [8] was over 10 µM each time. Further, the inhibition at 1 µM in data set [4] (Table 3B) is under 25%.
In the case of `CC(C)[C@H](NC(=O)c1ccnc2ccc(-c3ccc(Cl)cc3)cc12)C(=O)N1CC(F)(F)C[C@H]1C#N` [Compound 29], the figures for the IC50 in data set [2], in [3] and in data set [8] were over 10 µM, 1 to 10 µM and over 10 µM, respectively. Moreover, in [4] (Table 3B), the inhibition at 1 µM is under 25%.
Regarding `N#C[C@@H]1CC(F)(F)CN1C(=O)CNC(=O)c1ccnc2ccc(-c3ccc4cc(Cl)ccc4c3)cc12` [Compound 3, (S)-6-(6-chloronaphthalen-2-yl)-N-(2-(2-cyano-4,4-difluoropyrrolidin-1-yl)-2-oxoethyl)quinoline-4-carboxamide], the IC50 in [1] (setting [12]) was 3 to 10 µM; in data set [2] it was under 1 µM; in data set [3], 1 to 10 µM.
As to `COc1ccc(-c2ccc3nccc(C(=O)NCC(=O)N4CC(F)(F)C[C@H]4C#N)c3c2)cc1` [Compound 30], the IC50 in [1] (setting [12]) is 3 to 10 µM; in data set [2] it was under 1 µM; in [3] it was 1 to 10 µM.
Regarding `CC(C)[C@H](N)C(=O)N1CCC[C@H]1B(O)O` [Val-boroPro, reference compound], the IC50 in data set [1] (read-out: MV4-11 viability IC50, 48 hours post-treatment, Cell-Titer Glo) was under 3 µM. Moreover, the “stability of protease inhibitory activity” value in data set [9] is reported as “rapidly loses protease inhibitory activity”.
With `N#C[C@@H]1CC(F)(F)CN1C(=O)CNC(=O)c1ccnc2ccc(-c3ccc(Cl)cc3)cc12` [Compound 2, (S)-6-(4-chlorophenyl)-N-(2-(2-cyano-4,4-difluoropyrrolidin-1-yl)-2-oxoethyl)quinoline-4-carboxamide], the IC50 in data set [1] (setting [12]) was 3 to 10 µM; in data set [2] it was under 1 µM; in data set [10] it was under 1 µM; in [11], under 1 µM.
For `CC(C)[C@@H](NC(=O)c1ccnc2ccc(-c3ccc(Cl)cc3)cc12)C(=O)N1CC(F)(F)C[C@H]1C#N` [Compound 28], the IC50 in [2], in data set [3] and in [8] was over 10 µM each time. Moreover, in [4] (Table 3B), the inhibition at 1 µM was under 25%.
As to `C[C@H](NC(=O)c1ccncc1-c1ccccc1)C(=O)N1CC(F)(F)C[C@H]1C#N` [Compound 127], the IC50 in data set [2], in data set [3], in [4] and in [8] was over 10 µM throughout. The inhibition at 1 µM in [4] (Table 3B) is under 25%.

Source of the values: patent US11504364B2, “Inhibitors of fibroblast activation protein” (Praxis Biotech LLC, priority 2018, dated 2022).
